The text below walks through data of patent US20150337315A1, “COMPOSITIONS AND METHODS TARGETING SIGNALING BY THE G PROTEIN BETA-GAMMA SUBUNIT FOR THE TREATMENT OF ASTHMA” (priority 2014, published 2015).

Entries after “also recorded” stand apart in the source; their conditions may differ.

The subject of assay [1] is PDE activity in asthmatic HASM cells. The assay is described as follows: cAMP PDE activity assay in lysates of treated or siRNA-transfected asthmatic HASM cells. Type of assay: cell-based, human. The following applies: for effect on heightened basal PDE activity: × 2 hr. Here is the method:
Primary cultures of HASM cells derived from bronchial smooth muscle freshly isolated post-mortem from normal non-asthmatic (n=3) and asthmatic (n=4) donor lungs were purchased at passage 2-3 from Lonza Walkersville, Inc. Other than data regarding age, race, and gender of the donors provided in Table 1, limited information was available with respect to clinical severity of asthma, treatment history, or cause of death, with exception to asthma donor #1. All the experiments were conducted at passage 5-6, after growing the cells in Lonza's serum-containing SmBM medium supplemented with the BulletKit medium that contains insulin, human FGF, gentamycin/amphotericin B. The cells were maintained throughout in a humidified incubator containing 5% CO2 in air at 37° C. and, after attaining ˜90% confluence, cells were growth arrested for 24 hr in serum-free Ham's F12 medium. Thereafter, the cells were examined for constitutive and induced changes in PDE activity, levels of free Gβ, c-Src and ERK1/2 phosphorylation, and PDE4D protein expression, all in the absence and presence of different pretreatment conditions, as described.
Levels of total cAMP PDE activity were determined in normal and asthmatic HASM cells at baseline and at different times ranging from 0.25-24 hr following administration of a maximally effective concentration of either: 1) a cell permeable anti-Gβγ blocking peptide (1 μM; AnaSpec; Premont, Calif.), comprised of a membrane permeable sequence (MPS; 15 amino acids) conjugated to the Gβγ-sequestering C-terminal domain (28 amino acids) of phosducin-like protein [28]; 2) the inert MPS peptide alone (1 μM) serving as a negative-control; or 3) 1 μM of gallein [29], a recently described small molecule inhibitor of Gβγ signaling (Acros Organics). PDE activity was also assayed in normal and asthmatic HASM cells following dose-dependent administration of anti-Gβγ blocking peptide (0.01-10 μM), and following treatment with various small molecule inhibitors, as described. The PDE activity assay was performed in the HASM cell lysates using a colorimetric, non-radioactive enzymatic assay (Enzo Life Sciences; Plymouth Meeting, Pa.) as per the manufacturer's protocol, with some modification of our previously described approach. Specifically, to maximize the sensitivity and yield of the measurement enzyme activity, we used materials including a cell lysis buffer completely free of phosphate, composed of 50 mM Tris, pH 7.5, 0.1 mM EDTA, 0.1 mM EGTA, 1 mM DTT and 0.2% NP-40. The measured levels of PDE activity were standardized to protein content in the cell extracts. Finally, PDE activity was also assayed in normal and asthmatic HASM cells following transfection with siRNA preparations targeted at suppressing specific signaling molecules, as described below.
Targeted protein suppression using siRNA preparations was examined in normal and asthmatic HASM cells that were initially seeded into 6-well plates and, at ˜40% confluency, the medium was replaced with the reduced serum-containing medium, Opti-MEM (Invitrogen). Cells were then transfected twice during a 24-hr interval with pools of siRNA preparations, each pool comprised of three siRNA duplexes targeted against either human Rap1GAP (Ambion; ID: s11785, s11786, s11787), RGS14, (Ambion; ID: 18059, 18147, 135857), or the PKAα catalytic subunit (Santa Cruz Biotechnology; Pool ID: sc-36240), as well as a non-targeted (scrambled) siRNA duplex serving as a negative control. As previously described [16.17.31], the transfections were carried out using Oligofectamine (Invitrogen) as the transfection agent, and the pools of siRNAs were applied to each well at a final concentration of 100 nM for each siRNA preparation.

The test system of assay [2] is phosphorylated c-Src (p-Src). The assay can be described thus: Immunoblot of phosphorylated c-Src (Tyr416) in asthmatic HASM cells. Type of assay: cell-based, human. Here is the method: (§1) Levels of total and phosphorylated c-Src at residue Tyr416 and ERK1/2 proteins, as well as Gβ protein, were detected by Western blot analysis of lysates isolated from normal and asthmatic HASM cells before and at various times after treatment either with 1 μM of anti-Gβγ blocking peptide or gallein, or the c-Src family tyrosine kinase-selective inhibitor, SU6656 (10 μM), or exposure to the pro-asthmatic Th2 cytokine, IL-13 (50 ng/ml), as described. Following protein extraction and addition of gel loading buffer, the cellular extracts were loaded on a 10% SDS-PAGE gel for immunoblotting after transfer to a PVDF membrane. The membranes were then incubated overnight with monoclonal mouse anti-human primary antibodies directed against c-Src, phospho-c-Src^Tyr416, ERK1/2 and phospho-ERK1/2 (Millipore; Billerica, Mass.), and a rabbit anti-human polyclonal antibody directed against the Gβ subunit (Millipore; Billerica, Mass.). Protein levels were detected by ECL after a 1-hr incubation with a 1:2,000 dilution of HRP-conjugated secondary antibody, followed by exposure to autoradiography film. The protein band intensities were quantified by densitometry.
For orientation: Immunoblotting shows a protein as a band on a membrane.

Assay [3] relates to PDE activity detected in cultured asthmatic HASM cells. Particulars: recent report [27]; cited from earlier work.
For assay [4], the system named is co-localization of Gβ with immunoprecipitated Gα. The assay is described as follows: Western blot / Co-IP of free Gβ and Gα-associated Gβ in asthmatic HASM cells. The format is cell-based, human. The following applies: 1 μM, 30 min. Here is the method:
as §1, with “The membranes were then incubated overnight with monoclonal mouse anti-human primary antibodies directed against c-Src, phospho-c-Src^Tyr416, ERK1/2 and phospho-ERK1/2 (Millipore; Billerica, Mass.), and a rabbit anti-human polyclonal antibody directed against the Gβ subunit (Millipore; Billerica, Mass.).” left out
(§2) Normal and asthmatic HASM cells were prepared for co-immunoprecipitation (Co-IP) studies, performed as previously described, under native conditions in order to preserve protein-protein associations. […] The precipitated immunocomplexes were subsequently analyzed by immunoblotting using either anti-Gβ, anti-phospho-c-Src^Tyr416, anti-ERK1/2, or anti-PDE4D rabbit polyclonal antibody, or anti-Rap1GAP rabbit monoclonal IgG antibody (Millipore; Billerica, Mass.).

The test system is the same in assay [5]. The assay is described as follows: Western blot / Co-IP of free Gβ and Gα-associated Gβ in normal HASM cells. The format is cell-based, human. The following applies: 1 μM, 30 min. Here is the method:
as §1, with “The membranes were then incubated overnight with monoclonal mouse anti-human primary antibodies directed against c-Src, phospho-c-Src^Tyr416, ERK1/2 and phospho-ERK1/2 (Millipore; Billerica, Mass.), and a rabbit anti-human polyclonal antibody directed against the Gβ subunit (Millipore; Billerica, Mass.).” left out
as §2

The test system of assay [6] is phosphorylated ERK1/2 (p-ERK1/2). The assay can be described thus: Immunoblot of phosphorylated ERK1/2 in asthmatic HASM cells. Type of assay: cell-based, human. The following applies: 1 μM × 30 min. The method, then: as §1
Assay [7] has as its system co-localization of p-Src with immunoprecipitated Gβ. The assay can be described thus: Co-IP of p-Src with immunoprecipitated Gβ in IL-13-treated normal HASM cells. The format is cell-based, human. The following applies: IL-13 × 60 min. Here is the method: as §1, with “The membranes were then incubated overnight with monoclonal mouse anti-human primary antibodies directed against c-Src, phospho-c-Src^Tyr416, ERK1/2 and phospho-ERK1/2 (Millipore; Billerica, Mass.), and a rabbit anti-human polyclonal antibody directed against the Gβ subunit (Millipore; Billerica, Mass.).” left out
as §2

For assay [8], the system named is co-localization of ERK1/2 with PDE4D. The assay can be described thus: Co-IP of PDE4D with immunoprecipitated ERK1/2 in asthmatic HASM cells. Type of assay: cell-based, human. Particulars: within 30 min. The method, then:
Normal and asthmatic HASM cells were prepared for co-immunoprecipitation (Co-IP) studies, performed as previously described, under native conditions in order to preserve protein-protein associations. After indicated treatments, cells were harvested and then exposed to lysis buffer. 1.5 mg of Protein G Dynabeads (Invitrogen; Carlsbad, Calif.) were incubated with 10 μg of anti-Gβ rabbit IgG (Millipore) or anti-Gα (pan) rabbit polyclonal antibody (Millipore; Billerica, Mass.) and incubated for 10 min at room temperature with rotation. Following several washes, the bound bead/antibody complex was added to sample, mixed by pipetting, and incubated for 2 hr at 4° C. with rotation. The captured bead/Protein G/antigen complex was then washed several times and eluted at pH 3.0 with rotation at room temperature. The precipitated immunocomplexes were subsequently analyzed by immunoblotting using either anti-Gβ, anti-phospho-c-Src^Tyr416, anti-ERK1/2, or anti-PDE4D rabbit polyclonal antibody, or anti-Rap1GAP rabbit monoclonal IgG antibody (Millipore; Billerica, Mass.).

A further assay has as its system allergic rabbits. The following applies: previous study (18); cited from earlier work.
In the next assay the test system is asthmatic individuals. Particulars: cited from earlier work.
Assay [9] deals with PDE activity evoked in cultured normal HASM cells. Particulars: sensitized under various proasthmatic conditions; [16-18]; cited from earlier work.
Assay [10] relates to isolated rabbit ASM tissues. The following applies: sensitized under various proasthmatic conditions; [16-18]; cited from earlier work.
The test system of another assay is free Gβ protein levels. The assay can be described thus: Immunoblot of free Gβ protein in IL-13-treated normal HASM cells. Type of assay: cell-based, human. Particulars: IL-13 50 ng/ml, 50 μg/ml printed. Here is the method:
as §1

On to `O=S(=O)(NCCNC/C=C/c1ccc(Br)cc1)c1cccc2cnccc12` [H89], for which, in assay [1] (10 μM), the “effect on heightened basal PDE activity” value is listed as “no significant effect”.

With `O=c1cc(N2CCOCC2)oc2c(-c3ccccc3)cccc12` [LY294002], in [1] (10 μM), the “effect on heightened basal PDE activity” value is “no significant effect”.

On to `Oc1ccc(-c2nc(-c3ccncc3)c(-c3ccc(F)cc3)[nH]2)cc1` [SB202190], for which the “effect on heightened basal PDE activity” value in assay [1] (10 μM) was “no significant effect”.

With `CN(C)S(=O)(=O)c1ccc2c(c1)/C(=C/c1cc3c([nH]1)CCCC3)C(=O)N2` [SU6656], the “effect on heightened basal PDE activity” value in assay [1] (10 μM) is given as “suppressed to near normal levels; also recorded: acutely reversed to near normal levels”. Besides, the “effect on constitutively increased p-Src levels” value in [2] (SU6656 10 μM) is listed as “suppressive effect”.

On to `N#CC(=C(/N)Sc1ccccc1N)/C(C#N)=C(\N)Sc1ccccc1N` [U0126], for which, in [1] (5 μM), the “effect on heightened basal PDE activity” value is given as “acutely reversed to near normal levels; also recorded: acutely suppressed the elevated PDE activity in asthmatic HASM cells to near normal levels”.

Take `COc1ccc([C@]2(C#N)CC[C@@H](C(=O)O)CC2)cc1OC1CCCC1` [cilomilast]: the “effect on increased PDE activity in cultured asthmatic HASM cells” value in assay [3] was “inhibited”.

As to `O=C1OC2(c3ccccc31)c1ccc(O)c(O)c1Oc1c2ccc(O)c1O` [gallein], the “time at which PDE activity is suppressed to normal levels” value in [1] (1 μM) turned out to be 0.25 h. Also, in [1] (1 μM (maximally effective concentration), acute effect), the “effect on constitutively increased PDE activity in asthmatic HASM cells” value is listed as “similarly acutely suppressed”. In assay [1] (1 μM, followed up to 24 hr), the “duration of suppression of PDE activity” value is recorded as “transient in nature”. The “effect on Gβ distribution (increased free Gβ, reduced Gα-associated Gβ)” value in [4] is listed as “acutely reversed”. Also, the “effect on Gβ distribution” value in assay [5] is given as “neither inhibitor had an effect”. Also, the “effect on constitutively increased p-Src levels” value in assay [2] (1 μM × 30 min) was “acutely suppressed”. In assay [6], the “effect on constitutively increased p-ERK1/2 levels” value is “acutely suppressed”. Moreover, in assay [7], the “effect of pretreatment on IL-13-induced co-localization of p-Src with immunoprecipitated Gβ” value was “abrogated”. Also, the “effect on heightened co-localization of ERK1/2 with PDE4D” value in [8] is on record as “acutely reversed”. Moreover, in the assay with allergic rabbits, the “effect of pretreatment on in vivo AHR elicited by allergen challenge” value is given as “only suppressed AHR” and the “effect of pretreatment on pulmonary inflammation elicited by allergen challenge” value is on record as “no appreciable inhibitory effect”.

Turning to `O=C(Nc1c(Cl)cncc1Cl)c1ccc(OC(F)F)c(OCC2CC2)c1` [roflumilast], the “effect on airway hyperresponsiveness following allergen challenge” value in the assay with asthmatic individuals ([19,21]) is “decreases airway hyperresponsiveness”. For the same molecule, the “effect on lung function” value in the assay on asthmatic individuals ([20]) was “improves lung function”. Besides, the “effect on increased PDE activity in cultured asthmatic HASM cells” value in [3] was “inhibited”.

`COc1ccc(C2CNC(=O)C2)cc1OC1CCCC1` (centres unmarked) [rolipram]: the “effect on heightened constitutive PDE activity” value in [1] (10 μM × 1 hr, data not shown) is given as “completely abrogated”. Besides, in assay [9], the “effect on increased PDE activity evoked in cultured normal HASM cells” value was “inhibits”. In addition, in [10], the “effect on increased PDE activity evoked in isolated rabbit ASM tissues” value is “inhibits”.

Take “IL-13: pro-asthmatic Th2 cytokine used as stimulus”: the “effect on co-localization of p-Src with immunoprecipitated Gβ” value in [7] (relative to unstimulated cells) is listed as “increased co-localization; also recorded: enhanced co-localization”. In addition, the “time of peak of evoked increase in free Gβ levels” value in the assay on free Gβ protein levels was in the range of 60 to 90 min.
